From ChEMBL document CHEMBL4680369, “Synthesis of HDAC Inhibitor Libraries via Microscale Workflow” (ACS Med Chem Lett, 2021) come the findings set out here.

Test [1] concerns the target T1, Histone deacetylase 1 (Homo sapiens, UniProt Q13547). Nature of the test: Inhibition of HDAC1 (unknown origin) using compound purified by traditional preparative HPLC work-flow.
Test [2] has as its target T2, Histone deacetylase 2 (Homo sapiens, UniProt Q92769). Nature of the test: Inhibition of HDAC2 (unknown origin) using compound purified by traditional preparative HPLC work-flow.
Test [3] deals with T2, Histone deacetylase 2. The test can be described thus: Inhibition of HDAC2 (unknown origin) using compound purified by microgram-scale HPLC work-flow.
Test [4] concerns the target T1, Histone deacetylase 1. The test can be described thus: Inhibition of HDAC1 (unknown origin) using compound purified by microgram-scale HPLC work-flow.

What is called pIC50 is the negative decadic logarithm of the IC50, by convention in mol/L. Read a low pIC50 as a large IC50.

Molecules are shown by their SMILES. pIC50: −log10 of the molar value.

T2 sequence (Q92769 whole entry): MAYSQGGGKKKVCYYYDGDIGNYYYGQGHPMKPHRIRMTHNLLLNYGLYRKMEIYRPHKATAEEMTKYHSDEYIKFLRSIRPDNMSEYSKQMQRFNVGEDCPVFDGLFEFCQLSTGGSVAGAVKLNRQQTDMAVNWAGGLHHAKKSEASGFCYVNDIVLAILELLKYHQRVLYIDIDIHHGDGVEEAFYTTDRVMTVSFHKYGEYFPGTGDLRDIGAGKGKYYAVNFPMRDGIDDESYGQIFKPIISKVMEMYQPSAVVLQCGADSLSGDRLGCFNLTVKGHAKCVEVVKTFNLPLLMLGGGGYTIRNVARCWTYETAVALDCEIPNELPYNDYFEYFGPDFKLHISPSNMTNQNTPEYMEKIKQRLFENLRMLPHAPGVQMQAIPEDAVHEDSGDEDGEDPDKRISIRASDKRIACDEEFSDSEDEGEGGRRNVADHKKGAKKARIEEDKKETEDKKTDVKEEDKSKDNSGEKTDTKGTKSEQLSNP
T1 sequence (Q13547 whole entry): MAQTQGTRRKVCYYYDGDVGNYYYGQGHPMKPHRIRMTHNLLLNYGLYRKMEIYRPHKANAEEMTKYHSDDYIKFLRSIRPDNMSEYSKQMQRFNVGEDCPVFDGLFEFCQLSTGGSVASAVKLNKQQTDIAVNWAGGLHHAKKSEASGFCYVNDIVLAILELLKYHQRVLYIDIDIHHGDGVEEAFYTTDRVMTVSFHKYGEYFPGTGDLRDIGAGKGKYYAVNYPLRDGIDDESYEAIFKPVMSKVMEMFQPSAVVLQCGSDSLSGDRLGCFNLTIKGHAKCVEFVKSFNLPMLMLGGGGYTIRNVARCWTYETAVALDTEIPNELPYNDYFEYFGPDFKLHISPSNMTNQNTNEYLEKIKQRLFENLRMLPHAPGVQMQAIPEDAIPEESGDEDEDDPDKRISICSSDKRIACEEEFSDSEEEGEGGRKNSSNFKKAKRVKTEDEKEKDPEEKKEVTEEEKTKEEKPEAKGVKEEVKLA

As to `CCC(=O)CCCCC[C@H](NC(=O)[C@H]1CC12CCN(C)CC2)c1ncc(-c2cn(C)c3ccccc23)[nH]1`, the pIC50 on Histone deacetylase 1 [1] is 9.30; against Histone deacetylase 2 [2], 8.54.

`CCC(=O)CCCCC[C@H](NC(=O)[C@H]1CC12CCN(C)CC2)c1ncc(-c2ccn3ncnc3c2)[nH]1`: the pIC50 is 6.60 against Histone deacetylase 2 [3], 7.36 at Histone deacetylase 1 [4], 7.15 against Histone deacetylase 1 [1] and 6.46 on Histone deacetylase 2 [2].

Regarding `CCC(=O)CCCCC[C@H](NC(=O)[C@H]1CC12CCN(CC)CC2)c1ncc(-c2cc(C(F)(F)F)ccc2OC)[nH]1`, the pIC50 on Histone deacetylase 2 [3] was 7.80; against Histone deacetylase 1 [4], 8.74.

As for `CCC(=O)CCCCC[C@H](NC(=O)[C@H]1CC12CCN(C)CC2)c1ncc(-c2ccc(C)nc2OC)[nH]1`, the pIC50 against Histone deacetylase 2 [3] is 7.74; against Histone deacetylase 1 [4] it was 8.49; at Histone deacetylase 1 [1], 8.43; at Histone deacetylase 2 [2], 7.72.

As to `CCC(=O)CCCCC[C@H](NC(=O)[C@H]1CC12CCN(CC)CC2)c1ncc(-c2cc(C(C)C)c(F)cc2OC)[nH]1`, the pIC50 was 6.55 on Histone deacetylase 2 [3] and 7.20 at Histone deacetylase 1 [4].

As for `CCC(=O)CCCCC[C@H](NC(=O)[C@H]1CC12CCN(C)CC2)c1ncc(-c2ccnc(N3CCOCC3)c2F)[nH]1`, the pIC50 at Histone deacetylase 2 [3] is 6.88; on Histone deacetylase 1 [4], 7.66; on Histone deacetylase 1 [1], 7.44; against Histone deacetylase 2 [2] it was 6.75.

`CCC(=O)CCCCC[C@H](NC(=O)[C@H]1CC12CCN(C)CC2)c1ncc(-c2ccc(-c3cccnc3)nc2)[nH]1`: the pIC50 against Histone deacetylase 2 [3] is 7.85; against Histone deacetylase 1 [4], 8.59; at Histone deacetylase 1 [1], 8.19; at Histone deacetylase 2 [2] it was 7.52.

Turning to `CCOc1ncc(-c2cnc([C@H](CCCCCC(=O)CC)NC(=O)[C@H]3CC34CCN(C)CC4)[nH]2)cn1`, the pIC50 is 6.23 at Histone deacetylase 2 [3], 7.00 against Histone deacetylase 1 [4], 6.84 on Histone deacetylase 1 [1] and 6.13 against Histone deacetylase 2 [2].

On to `CCC(=O)CCCCC[C@H](NC(=O)[C@H]1CC12CCN(C)CC2)c1ncc(C2=CC(=O)N(C)CC2)[nH]1`, for which the pIC50 on Histone deacetylase 2 [3] is 5.78; against Histone deacetylase 1 [4], 6.52; against Histone deacetylase 1 [1], 6.46; on Histone deacetylase 2 [2], 5.80.

With `CCC(=O)CCCCC[C@H](NC(=O)[C@H]1CC12CCN(CC)CC2)c1ncc(-c2c(F)cccc2OC)[nH]1`, the pIC50 at Histone deacetylase 2 [3] is 6.43; at Histone deacetylase 1 [4] it was 7.14.

With `CCC(=O)CCCCC[C@H](NC(=O)[C@H]1CC12CCN(CC)CC2)c1ncc(-c2ccc(C(=O)Nc3cc(C(F)(F)F)ccn3)cc2OC)[nH]1`, the pIC50 was 7.06 at Histone deacetylase 2 [3] and 6.92 at Histone deacetylase 1 [4].

As to `CCC(=O)CCCCC[C@H](NC(=O)[C@H]1CC12CCN(C)CC2)c1ncc(-c2ccc(-n3nc(C)cc3C)cc2)[nH]1`, the pIC50 against Histone deacetylase 2 [3] is 7.15; against Histone deacetylase 1 [4] it was 7.92; against Histone deacetylase 1 [1] it was 7.85; against Histone deacetylase 2 [2], 7.19.

`CCC(=O)CCCCC[C@H](NC(=O)[C@H]1CC12CCN(CC)CC2)c1ncc(-c2cc([N+](=O)[O-])ccc2OC)[nH]1`: the pIC50 at Histone deacetylase 2 [3] was 7.37; against Histone deacetylase 1 [4], 8.11.

For `CCOC(=O)c1cc2cc(OC)c(-c3cnc([C@H](CCCCCC(=O)CC)NC(=O)[C@H]4CC45CCN(CC)CC5)[nH]3)cc2o1`, the pIC50 against Histone deacetylase 2 [3] is 8.04; against Histone deacetylase 1 [4] it was 8.96.

For the compound `CCC(=O)CCCCC[C@H](NC(=O)[C@H]1CC12CCN(C)CC2)c1ncc(-c2cnc3cccnc3c2)[nH]1`, the pIC50 was 7.04 against Histone deacetylase 2 [3], 7.85 at Histone deacetylase 1 [4], 7.55 at Histone deacetylase 1 [1] and 6.79 at Histone deacetylase 2 [2].

Regarding `CCC(=O)CCCCC[C@H](NC(=O)[C@H]1CC12CCN(C)CC2)c1ncc(-c2ccc(C(=O)NC3CCOC3)cc2)[nH]1` (some centres not stated), the pIC50 at Histone deacetylase 2 [3] was 7.15; on Histone deacetylase 1 [4] it was 7.96; on Histone deacetylase 1 [1] it was 8.04; against Histone deacetylase 2 [2] it was 7.27.

In the case of `CCC(=O)CCCCC[C@H](NC(=O)[C@H]1CC12CCN(C)CC2)c1ncc(-c2cnc(-n3cc(C)cn3)nc2)[nH]1`, the pIC50 against Histone deacetylase 2 [3] is 6.31; at Histone deacetylase 1 [4], 6.99.

At Histone deacetylase 2 [2], `CCC(=O)CCCCC[C@H](NC(=O)[C@H]1CC12CCN(C)CC2)c1ncc(-c2ccc3[nH]c4ccccc4c3c2)[nH]1` had a pIC50 of 8.96.

Take `CCC(=O)CCCCC[C@H](NC(=O)[C@H]1CC12CCN(CC)CC2)c1ncc(C2=CCC(C)N=C2OC)[nH]1` (some centres not stated): the figures for the pIC50 on Histone deacetylase 2 [3] and against Histone deacetylase 1 [4] were 8.85 and 7.85, respectively.

As for `CCOC(=O)C1CC1c1ccc(OC)c(-c2cnc([C@H](CCCCCC(=O)CC)NC(=O)[C@H]3CC34CCN(CC)CC4)[nH]2)c1` (some centres not stated), the figures for the pIC50 on Histone deacetylase 2 [3] and against Histone deacetylase 1 [4] were 7.41 and 8.16, respectively.

Take `CCC(=O)CCCCC[C@H](NC(=O)[C@H]1CC12CCN(CC)CC2)c1ncc(-c2c(F)cc(C(=O)Nc3cc(C(F)(F)F)ccn3)cc2OC)[nH]1`: the figures for the pIC50 against Histone deacetylase 2 [3] and on Histone deacetylase 1 [4] were 6.49 and 7.66, respectively.

On to `CCC(=O)CCCCC[C@H](NC(=O)[C@H]1CC12CCN(CC)CC2)c1ncc(-c2cc(C(=O)OC)c(F)cc2OC)[nH]1`, for which the pIC50 on Histone deacetylase 2 [3] was 6.81; on Histone deacetylase 1 [4] it was 7.51.

Take `CCC(=O)CCCCC[C@H](NC(=O)[C@H]1CC12CCN(CC)CC2)c1ncc(-c2cccc(C(F)(F)F)c2OC)[nH]1`: the pIC50 at Histone deacetylase 2 [3] was 7.20; on Histone deacetylase 1 [4] it was 7.89.

For `CCC(=O)CCCCC[C@H](NC(=O)[C@H]1CC12CCN(CC)CC2)c1ncc(-c2cc(C#N)ccc2OC)[nH]1`, the pIC50 was 7.21 against Histone deacetylase 2 [3] and 7.92 at Histone deacetylase 1 [4].

As for `CCC(=O)CCCCC[C@H](NC(=O)[C@H]1CC12CCN(CC)CC2)c1ncc(-c2c(OC)ccc(F)c2F)[nH]1`, the pIC50 against Histone deacetylase 2 [3] was 5.81; on Histone deacetylase 1 [4] it was 6.22.
